From patent US10759809B2 (priority 2017, dated 2020)
Structures can show the parent of a compound that is named as a salt.

Assays:
Kunming mice = assay: animal or person; assay type: in vivo; conditions: Mus musculus, po, 1 h
Mice = conditions: both, mouse, in vivo
SD rats = conditions: male, rat, in vivo
SD rat = assay: animal or person; assay type: in vivo; conditions: po, 1 h

**Q.** Which ED50 (Kunming mice) does the source give for `CO[C@]12CC[C@@]3(C[C@@H]1[C@](C)(O)C(C)(C)C)[C@H]1Cc4ccc(O)c5c4[C@@]3(CCN1CC1CC1)[C@H]2O5` [buprenorphine•HCl, (2S)-2-[(5R, 6R, 7R, 14S)—N-cyclopropylmethyl-4,5-epoxy-6, 14-ethano-3-hydroxy-6-methoxymorphinan-7-yl]-3,3-di methylbutan-2-ol, reference compound] here?
**A.** 11.8 ± 11.7 mg/kg

**Q.** What about the “Inhibition of activated carbon excretion” value (Mice) of the same compound?
**A.** 63.87 ± 2.16%

**Q.** And the “Residence time in drug-side box (Mean ± S, s)” value (SD rats)?
**A.** 277.56 ± 164.99 s

**Q.** What about the ED50 (SD rat) of the same compound?
**A.** > 50 mg/kg

**Q.** For `[2H]c1c([2H])c2c3c(c1O)O[C@H]1[C@@]4(OC)CC[C@@]5(C[C@@H]4[C@](C)(O)C(C)(C)C)[C@@H](C2)N(C([2H])([2H])C2CC2)CC[C@]315` [I6•HCl, (2S)-2-[(5R, 6R, 7R, 14S)-1,2-dideutero-N-(cyclopropyl-dideuteromethyl)-4,5-epoxy-6,14-ethano-3-hydroxy-6-methoxymorphinan-7-yl]-3,3-dimethylbutan-2-ol], which ED50 (Kunming mice) is on record?
**A.** 5.83 ± 2.23 mg/kg

**Q.** What about the ED50 (SD rat) of the same compound?
**A.** 18 ± 8.56 mg/kg

**Q.** Which results are given for `[2H]C1C([2H])[C@]23C[C@H]([C@](C)(O)C(C)(C)C)[C@@]1(OC)C1Oc4c(O)ccc5c4[C@@]12CCN(CC1CC1)[C@@H]3C5` (stereo partly drawn) [I7•HCl, (2S)-2-[(5R, 6R, 7R, 14S)—N-(cyclopropyl-methyl)-4,5-epoxy-6,14-dideuteroethano-3-hydroxy-6-methoxymorphinan-7-yl]-3,3-dimethylbutan-2-ol]?
**A.** ED50 (Kunming mice): 12 ± 11.7 mg/kg; ED50 (SD rat): 38 ± 19.7 mg/kg

**Q.** With `[2H]C([2H])(C1CC1)N1CC[C@]23c4c5ccc(O)c4O[C@H]2[C@@]2(OC)CC[C@@]3(C[C@@H]2[C@](C)(O)C(C)(C)C)[C@H]1C5` [I1•HCl, (2S)-2-[(5R, 6R, 7R, 14S)—N-(cyclopropyl-dideuteromethyl)-4,5-epoxy-6, 14-ethano-3-hydroxy-6-methoxymorphinan-7-yl]-3,3-dimethylbutan-2-ol] as the compound, how does the ED50 (Kunming mice) read?
**A.** 6.54 ± 2.96 mg/kg

**Q.** What about the “Inhibition of activated carbon excretion” value (Mice) of the same compound?
**A.** 36.31 ± 2.78%

**Q.** What about the “Residence time in drug-side box (Mean ± S, s)” value (SD rats) of the same compound?
**A.** 149.19 ± 36.88 s

**Q.** And the ED50 (SD rat)?
**A.** 19 ± 7.29 mg/kg

**Q.** `[2H]c1c([2H])c2c3c(c1O)O[C@H]1[C@@]4(OC)CC[C@@]5(C[C@@H]4[C@](C)(O)C(C)(C)C)[C@@H](C2)N(CC2CC2)CC[C@]315` [I5•HCl, (2S)-2-[(5R, 6R, 7R, 14S)-1,2-dideutero-N-cyclopropylmethyl-4,5-epoxy-6,14-ethano-3-hydroxy-6-methoxymorphinan-7-yl]-3,3-dimethylbutan-2-ol] was tested. Which ED50 (Kunming mice) did it give?
**A.** 8.02 ± 11.3 mg/kg

**Q.** What about the ED50 (SD rat) of the same compound?
**A.** 31.1 ± 10.9 mg/kg
